Tested on: GUMC-403
Test: viability at highest tested concentration (max response) relative to DMSO (% of DMSO control); higher = less cytotoxic
Details: library / dose series: MIPE library, 11-point 1:3 dilution; top concentration 27.2 µM; 48 h
Summary of the method: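 The value is viability at the highest tested concentration, expressed relative to vehicle control. Patient-derived GUMC-403 papilloma cells, grown by conditional reprogramming, were seeded at 700/well in 5 μL F + Y medium in 1536-well plates. After an overnight incubation at 37 °C, they received 23 nL of compound by pin tool for 48 h. Readout was CellTiter-Glo luminescence on a ViewLux, normalised to vehicle wells (100%) and empty wells (0%).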

Compound `CN1[C@@H]2CC(OC(=O)[C@@H](CO)c3ccccc3)C[C@H]1[C@H]1O[C@H]12` (stereo partly specified) has a viability of 131.

Same assay, conditions: library / dose series: MIPE library, 11-point 1:3 dilution; top concentration 46.1 µM; 48 h

Going from `CN1C2=CC(=O)/C(=N/NC(N)=O)C=C2CC1S(=O)(=O)[O-].[Na+]` (stereo unspecified) to `CCN1CCCC1CNC(=O)c1cc(S(=O)(=O)CC)c(N)cc1OC` (stereo unspecified), the viability rises from 102 to 119.

Compared with `O=C1[O][Pt]2([NH]C3CCCCC3[NH]2)[O]C1=O` (stereo unspecified), `NC/1=N/C(=O)N(/C=C1)[C@H]2CC[C@@H](CO)O2` is lower in viability: 113 for the first, 84.4 for the second.

First: c1cc(OCCN2CCCCC2)cc(-c2n[nH]c3ccc(-c4nc[nH]n4)cc23)c1
Second: Cc1ccc(NC(=O)c2ccc(CN3CCN(C)CC3)cc2)cc1Nc1nccc(-c2cccnc2)n1
The viability of the first is lower: 111 for the first, 127 for the second.

First: CN1CCN(Cc2ccc(NC(=O)Nc3ccc(Oc4cc(NC(=O)C5CC5)ncn4)cc3)cc2C(F)(F)F)CC1
Second: CCN1CCN(c2ccc(Nc3cc(N(C)C(=O)Nc4c(Cl)c(OC)cc(OC)c4Cl)ncn3)cc2)CC1
The viability of the first is lower: 52.7 for the first, 117 for the second.

First: OC(COC1=C2C(=O)\C=C(/OC2=CC=C1)C([O-])=O)COC3=C4C(=O)\C=C(/OC4=CC=C3)C([O-])=O
Second: CN(C)Cc1c(C(=O)NCCOc2ccc(C(=O)NO)cc2)oc2ccccc12
The viability of the first is higher: 113 for the first, 82.5 for the second.

First: Clc1ccc(C(c2ccccc2Cl)C(Cl)Cl)cc1 (stereo unspecified)
Second: Clc1ccccc1CN1CCc2sccc2C1
The viability of the first is lower: 100 for the first, 141 for the second.

First: CCOC(=O)N1CCN(/[N+]([O-])=N/Oc2cc(O/N=[N+](\[O-])N3CCN(C(=O)OCC)CC3)c([N+](=O)[O-])cc2[N+](=O)[O-])CC1
Second: CC(C)C[C@H](NC(=O)c1cc2ccccc2s1)C(=O)N1CCN(C(=O)[C@H](CO)N[S+](=O)([O-])c2ccc(Cl)cc2Cl)CC1
The viability of the first is higher: 118 for the first, 109 for the second.

Going from `N#C/C(=C\c1ccc(O)c(O)c1)C(=O)NCc1ccccc1` to `OC1=CC2=C(C(=C1)O)C(=O)\C=C(/O2)C3=CC=CC=C3`, the viability rises from 110 to 126.

Going from `Oc1cc2c(cc1O)C1c3ccc(O)c(O)c3OCC1(O)C2` (stereo unspecified) to `O=C1c2c(O)cc(O)cc2O[C@H](c2cc(O)c(O)c(O)c2)[C@H]1O`, the viability falls from 129 to 115.

First: C\C1=C\N([C@H]2C[C@H](N=[N+]=[N-])[C@@H](CO)O2)C(=O)NC1=O
Second: NC(=O)c1ncn([C@@H]2O[C@H](CO)[C@@H](O)[C@H]2O)c1N
The viability of the first is lower: 113 for the first, 118 for the second.

Compared with `O=C(Nc1ccccc1)Nc1ccc(-c2ccc(C(=O)[C@@H]3CCC[C@H]3C(=O)O)cc2)cc1`, `Cc1nc2c([nH]1)-c1ccccc1N(C(=O)c1ccc(NC(=O)c3ccccc3-c3ccccc3)cc1)CC2` is lower in viability: 128 for the first, 126 for the second.

Compared with `NC(=O)c1cccc(N)c1`, `Cc1cccc(Nc2nc(N[C@@H]3CCCC[C@@H]3N)ncc2C(N)=O)c1` is lower in viability: 109 for the first, 66.7 for the second.

Going from `CN[C@@H]1[C@@H](O)[C@@H](O[C@@H]2[C@@H](O)[C@H](O[C@H]3O[C@H](CN)[C@@H](O)[C@H](O)[C@H]3O)[C@@H](N)C[C@H]2NC(=O)[C@@H](O)CN)OC[C@]1(C)O` to `COc1ccc(CCC(=O)c2c(O)cc(O[C@@H]3O[C@H](CO)[C@@H](O)[C@H](O)[C@H]3O[C@@H]3O[C@@H](C)[C@H](O)[C@@H](O)[C@H]3O)cc2O)cc1O`, the viability falls from 96.8 to 57.9.

First: CC1=CC=C2\N=C/3N(CC[C@@]3(O)C(=O)C2=C1)C4=CC=CC=C4
Second: CCOC(=O)c1cncn1[C@H](C)c1ccccc1
The viability of the first is lower: 104 for the first, 111 for the second.

First: CC[C@H](C)C(=O)O[C@H]1C[C@@H](C)\C=C2\C=C/[C@H](C)[C@H](CC[C@@H]3C[C@@H](O)CC(=O)O3)[C@@H]12
Second: C/C(=C\c1csc(C)n1)[C@@H]1C[C@@H]2O[C@]2(C)CCC[C@H](C)[C@H](O)[C@@H](C)C(=O)C(C)(C)[C@@H](O)CC(=O)O1
The viability of the first is lower: 61.5 for the first, 102 for the second.

Compared with `Cc1c(CCOc2ccc(C(=O)O)cc2)c2cc(Cl)ccc2n1C(c1ccccc1)c1ccccc1`, `CC(C)(O)CCc1ccc(OCc2cc(-c3cccc(OC(F)F)c3)c3ncccc3c2)cc1` is higher in viability: 113 for the first, 143 for the second.

Going from `CC1(C)OC2CC3C4CC(F)C/5=C/C(=O)/C=C\C5(C)C4C(O)CC3(C)[C@@]2(O1)C(=O)CO` (stereo partly specified) to `C[C@H](CCC(=O)O)[C@H]1CCC2C3C[C@H](O)[C@@H]4C[C@H](O)CC[C@]4(C)C3CC[C@@]21C` (stereo partly specified), the viability falls from 148 to 108.

Compared with `CCOC(=O)[C@H]1O[C@@H]1C(=O)N[C@@H](CC(C)C)C(=O)NCCC(C)C`, `CC(C)C1CCC(C(=O)N[C@H](Cc2ccccc2)C(=O)O)CC1` (stereo partly specified) is lower in viability: 109 for the first, 85.9 for the second.

Compared with `COC1=CC=C(C=C1)C/2=C(OC3O[C@@H](C)[C@H](O)[C@@H](O)[C@H]3O)/C(=O)C4=C(O2)C(=C(OC5O[C@H](CO)[C@@H](O)[C@H](O)[C@H]5O)C=C4O)CC=C(C)C` (stereo partly specified), `CO/C1=C/C(C)=C\[C@@H](C)[C@@H](O)[C@@H](C)C/C(C)=C\C=C/[C@H](OC)[C@@H]([C@@H](C)[C@@H](O)[C@H](C)[C@@]2(O)C[C@@H](O)[C@H](C)[C@@H](C(C)C)O2)OC1=O` is lower in viability: 117 for the first, 93 for the second.

Going from `CN1C(=O)COc2c(C(=O)NC3CN4CCC3CC4)cc(Cl)cc21` (stereo unspecified) to `CN1CCN(C(=O)O[C@H]2c3nccnc3C(=O)N2c2ccc(Cl)cn2)CC1`, the viability rises from 107 to 117.

Compared with `CNC(=O)CN1CCC(Oc2cc3c(Nc4cccc(Cl)c4F)ncnc3cc2OC)CC1`, `COc1cc2ncnc(Nc3cccc(Br)c3)c2cc1OC` is higher in viability: 61.1 for the first, 81.6 for the second.

Compared with `CC1(N2CCC(n3c([C@@H]4CCCNC4)nc4ccccc43)CC2)CCCCCCC1`, `COC(=O)[C@@H]1[C@H]2C[C@H]3c4[nH]c5ccccc5c4CCN3C[C@@H]2CC[C@@H]1O` is higher in viability: 115 for the first, 128 for the second.

First: Cc1nc(-c2ccc(OCC(C)C)c(C#N)c2)sc1C(=O)O
Second: COC(=O)Nc1nc2cc(C(=O)c3ccc(F)cc3)ccc2[nH]1
The viability of the first is higher: 129 for the first, 88 for the second.

Going from `CN(C(=O)c1ccc(F)cc1C(F)(F)F)C1CCN(c2nnc(-c3ccnn3C)c3ccccc23)CC1` to `Nc1ccc(C(=O)Nc2cccc(-c3nc(N4CCOCC4)c4oc5ncccc5c4n3)c2)cn1`, the viability rises from 78.1 to 101.

Compared with `Cc1ccc([S+](=O)([O-])NC(=O)NN2CC3CCCC3C2)cc1` (stereo unspecified), `O=C([O-])[C@H](CC(=O)N1C[C@H]2CCCC[C@H]2C1)Cc1ccccc1` is higher in viability: 109 for the first, 144 for the second.

Compared with `COc1ccc2c(c[n+](C)c3c4cc5c(cc4ccc23)OCO5)c1OC`, `COc1ccc2cc3[n+](cc2c1OC)CCc1cc2c(cc1-3)OCO2` is higher in viability: 38.7 for the first, 99.7 for the second.

First: OC1=CC=C(C=C1)C/2=C/C3=C(OC2)C=C(O)C=C3
Second: N[S+]([O-])(=O)C1=CC=C(NC/2=C/C(=O)C3=CC=CC=C3C2=O)C=C1
The viability of the first is lower: 89.4 for the first, 142 for the second.

First: CC[C@@H](C(N)=O)N1CCCC1=O
Second: CC(=O)OCCN1C(=O)c2c(C)nc3ccc([S+](=O)([O-])N4CCOCC4)cc3c2C1=O
The viability of the first is lower: 6.2 for the first, 123 for the second.

Compared with `CCCNC(=O)Nc1ccc(Oc2ncnc3cc(OC)c(OC)cc23)cc1Cl`, `COc1cccc(OC)c1-c1cc(C(=O)NC2(C(=O)O)C3CC4CC(C3)CC2C4)nn1-c1ccnc2cc(Cl)ccc12` (stereo unspecified) is higher in viability: 92.2 for the first, 124 for the second.

Compared with `CN(C)C(=O)COC(=O)Cc1ccc(OC(=O)c2ccc(NC(=N)N)cc2)cc1`, `Nc1ccccc1NC(=O)c1ccc(CNC(=O)OCc2cccnc2)cc1` is higher in viability: 62.7 for the first, 110 for the second.

Compared with `NC/1=N/C(=O)C2=C([NH]C=C2CCC3=CC=C(C=C3)C(=O)N[C@@H](CCC(O)=O)C(O)=O)N1`, `CSCC[C@@H](NC(=O)[C@@H](Cc1ccccc1)NC(=O)CNC(=O)CNC(=O)[C@@H](N)Cc1ccc(O)cc1)C(=O)O` is higher in viability: 119 for the first, 126 for the second.

Going from `CC(O)(C#Cc1ccc2c(c1)N(c1nc(N)ncc1Cl)CC2)c1nccs1` (stereo unspecified) to `COc1cc(N2CCN(C)CC2)ccc1Nc1nc(N)c(C(=O)c2c(Cl)cccc2Cl)s1`, the viability rises from 86.5 to 120.

Going from `COc1nccc(-c2c(-c3ccc(F)cc3)ncn2C2CCC(O)CC2)n1` (stereo unspecified) to `NC1(Cc2ccc(Cl)cc2)CCN(c2ncnc3[nH]ccc23)CC1`, the viability falls from 131 to 62.8.

First: O=C(NCC1CCOCC1)c1cnc(Nc2ccc(Cl)cc2Cl)nc1C(F)(F)F
Second: Cc1cc(Nc2cc(CN3CCOCC3)c3nc(C)c(Cc4ccc(Cl)cc4F)n3n2)[nH]n1
The viability of the first is higher: 141 for the first, 74.1 for the second.

Compared with `Cn1c(=O)c2c(ncn2C)n(C)c1=O.O=C(O)CC(O)(CC(=O)O)C(=O)O`, `CC(/C=C1\SC(=S)N(CC(=O)O)C1=O)=C\c1ccccc1` is higher in viability: 98.9 for the first, 132 for the second.

First: Nc1nc(OCc2ccccc2)c2nc[nH]c2n1
Second: CCN(CC)CCCC(C)Nc1ccnc2cc(Cl)ccc12 (stereo unspecified)
The viability of the first is higher: 111 for the first, 103 for the second.

Compared with `CC[C@H]1/C=C\C=C/C[C@@H](C)[C@H](O)[C@@](C)(O)C(=O)[C@@H](C)[C@H](O)[C@@H](C)C(=O)[C@@H](C)[C@H](O)[C@@H](C)/C=C/C(=O)O[C@@H]2[C@H](C)[C@H](CC1)O[C@]1(CC[C@H](C)[C@H](C[C@@H](C)O)O1)[C@H]2C`, `O=C(CCCCCCC(=O)Nc1ccc([C@H]2O[C@@H](CSc3nc(-c4ccccc4)c(-c4ccccc4)o3)C[C@@H](c3ccc(CO)cc3)O2)cc1)NO` is lower in viability: 146 for the first, 115 for the second.

First: NC[C@H](O)c1ccc(O)c(O)c1
Second: CN(C)CCN(C)CCc1ccc(Cl)c(Cl)c1
The viability of the first is lower: 113 for the first, 124 for the second.

Going from `[NH2][Pt]1([NH2])[O]CC(=O)[O]1` to `N[C@@H]1CONC1=O`, the viability falls from 142 to 127.

For `CN(Cc1cc(Br)cc(Br)c1N)C1CCCCC1`, the viability was 122.

Same assay, conditions: library / dose series: MIPE library, 11-point 1:3 dilution; top concentration 92.2 µM; 48 h

For `CC(C)(C)c1[nH]cnc1/C=c1\[nH]c(=O)/c(=C/c2ccccc2)[nH]c1=O`, the viability was 95.3.
